Laboratory results as given in ChEMBL document CHEMBL5352447, “Development of [1,2]oxazoloisoindoles tubulin polymerization inhibitors: Further chemical modifications and potential therapeutic effects against lymphomas” (Eur J Med Chem, 2022).

Tested on: CCRF-CEM
Assay: Antiproliferative activity against human CCRF-CEM cells assessed as cell growth inhibition incubated for 72 hrs by MTT assay
Assay type: functional

| Compound | GI50 [nM] |
| --- | --- |
| COc1ccc(Cn2cc3c(c2-c2cc(OC)c(OC)c(OC)c2)CCc2c(CN4CCOCC4)noc2-3)cc1 | 1260 |

Tested on: HL-60(TB)
Assay: Antiproliferative activity against human HL-60(TB) cells assessed as cell growth inhibition incubated for 72 hrs by MTT assay
Assay type: functional

| Compound | GI50 [nM] |
| --- | --- |
| COc1ccc(Cn2cc3c(c2-c2cc(OC)c(OC)c(OC)c2)CCc2c(CN4CCOCC4)noc2-3)cc1 | 390 |

Tested on: MOLT-4
Assay: Antiproliferative activity against human MOLT-4 cells assessed as cell growth inhibition incubated for 72 hrs by MTT assay
Assay type: functional

| Compound | GI50 [nM] |
| --- | --- |
| COc1ccc(Cn2cc3c(c2-c2cc(OC)c(OC)c(OC)c2)CCc2c(CN4CCOCC4)noc2-3)cc1 | 3060 |

Tested on: RPMI-8226
Assay: Antiproliferative activity against human RPMI-8226 cells assessed as cell growth inhibition incubated for 72 hrs by MTT assay
Assay type: functional

| Compound | GI50 [nM] |
| --- | --- |
| COc1ccc(Cn2cc3c(c2-c2cc(OC)c(OC)c(OC)c2)CCc2c(CN4CCOCC4)noc2-3)cc1 | 770 |

Tested on: SR
Assay: Antiproliferative activity against human SR cells assessed as cell growth inhibition incubated for 72 hrs by MTT assay
Assay type: functional

| Compound | GI50 [nM] |
| --- | --- |
| COc1ccc(Cn2cc3c(c2-c2cc(OC)c(OC)c(OC)c2)CCc2c(CN4CCOCC4)noc2-3)cc1 | 380 |

Tested on: EKVX
Assay: Antiproliferative activity against human EKVX cells assessed as cell growth inhibition incubated for 72 hrs by MTT assay
Assay type: functional

| Compound | GI50 [nM] |
| --- | --- |
| COc1ccc(Cn2cc3c(c2-c2cc(OC)c(OC)c(OC)c2)CCc2c(CN4CCOCC4)noc2-3)cc1 | 1400 |

Tested on: HOP-62
Assay: Antiproliferative activity against human HOP-62 cells assessed as cell growth inhibition incubated for 72 hrs by MTT assay
Assay type: functional

| Compound | GI50 [nM] |
| --- | --- |
| COc1ccc(Cn2cc3c(c2-c2cc(OC)c(OC)c(OC)c2)CCc2c(CN4CCOCC4)noc2-3)cc1 | 1000 |

Tested on: NCI-H23
Assay: Antiproliferative activity against human NCI-H23 cells assessed as cell growth inhibition incubated for 72 hrs by MTT assay
Assay type: functional

| Compound | GI50 [nM] |
| --- | --- |
| COc1ccc(Cn2cc3c(c2-c2cc(OC)c(OC)c(OC)c2)CCc2c(CN4CCOCC4)noc2-3)cc1 | 2170 |

Tested on: NCI-H522
Assay: Antiproliferative activity against human NCI-H522 cells assessed as cell growth inhibition incubated for 72 hrs by MTT assay
Assay type: functional

| Compound | GI50 [nM] |
| --- | --- |
| COc1ccc(Cn2cc3c(c2-c2cc(OC)c(OC)c(OC)c2)CCc2c(CN4CCOCC4)noc2-3)cc1 | 300 |

Tested on: HCC 2998
Assay: Antiproliferative activity against human HCC 2998 cells assessed as cell growth inhibition incubated for 72 hrs by MTT assay
Assay type: functional

| Compound | GI50 [nM] |
| --- | --- |
| COc1ccc(Cn2cc3c(c2-c2cc(OC)c(OC)c(OC)c2)CCc2c(CN4CCOCC4)noc2-3)cc1 | 2170 |

Tested on: HCT-116
Assay: Antiproliferative activity against human HCT-116 cells assessed as cell growth inhibition incubated for 72 hrs by MTT assay
Assay type: functional

| Compound | GI50 [nM] |
| --- | --- |
| COc1ccc(Cn2cc3c(c2-c2cc(OC)c(OC)c(OC)c2)CCc2c(CN4CCOCC4)noc2-3)cc1 | 500 |

Tested on: HCT-15
Assay: Antiproliferative activity against human HCT-15 cells assessed as cell growth inhibition incubated for 72 hrs by MTT assay
Assay type: functional

| Compound | GI50 [nM] |
| --- | --- |
| COc1ccc(Cn2cc3c(c2-c2cc(OC)c(OC)c(OC)c2)CCc2c(CN4CCOCC4)noc2-3)cc1 | 510 |

Tested on: SW-620
Assay: Antiproliferative activity against human SW620 cells assessed as cell growth inhibition incubated for 72 hrs by MTT assay
Assay type: functional

| Compound | GI50 [nM] |
| --- | --- |
| COc1ccc(Cn2cc3c(c2-c2cc(OC)c(OC)c(OC)c2)CCc2c(CN4CCOCC4)noc2-3)cc1 | 430 |

Tested on: SF-295
Assay: Antiproliferative activity against human SF-295 cells assessed as cell growth inhibition incubated for 72 hrs by MTT assay
Assay type: functional

| Compound | GI50 [nM] |
| --- | --- |
| COc1ccc(Cn2cc3c(c2-c2cc(OC)c(OC)c(OC)c2)CCc2c(CN4CCOCC4)noc2-3)cc1 | 470 |

Tested on: SF-539
Assay: Antiproliferative activity against human SF-539 cells assessed as cell growth inhibition incubated for 72 hrs by MTT assay
Assay type: functional

| Compound | GI50 [nM] |
| --- | --- |
| COc1ccc(Cn2cc3c(c2-c2cc(OC)c(OC)c(OC)c2)CCc2c(CN4CCOCC4)noc2-3)cc1 | 440 |

Tested on: SNB-19
Assay: Antiproliferative activity against human SNB-19 cells assessed as cell growth inhibition incubated for 72 hrs by MTT assay
Assay type: functional

| Compound | GI50 [nM] |
| --- | --- |
| COc1ccc(Cn2cc3c(c2-c2cc(OC)c(OC)c(OC)c2)CCc2c(CN4CCOCC4)noc2-3)cc1 | 860 |

Tested on: SNB-75
Assay: Antiproliferative activity against human SNB-75 cells assessed as cell growth inhibition incubated for 72 hrs by MTT assay
Assay type: functional

| Compound | GI50 [nM] |
| --- | --- |
| COc1ccc(Cn2cc3c(c2-c2cc(OC)c(OC)c(OC)c2)CCc2c(CN4CCOCC4)noc2-3)cc1 | 310 |

Tested on: U-251
Assay: Antiproliferative activity against human U-251 cells assessed as cell growth inhibition incubated for 72 hrs by MTT assay
Assay type: functional

| Compound | GI50 [nM] |
| --- | --- |
| COc1ccc(Cn2cc3c(c2-c2cc(OC)c(OC)c(OC)c2)CCc2c(CN4CCOCC4)noc2-3)cc1 | 880 |

Tested on: Malme-3M
Assay: Antiproliferative activity against human Malme-3M cells assessed as cell growth inhibition incubated for 72 hrs by MTT assay
Assay type: functional

| Compound | GI50 [nM] |
| --- | --- |
| COc1ccc(Cn2cc3c(c2-c2cc(OC)c(OC)c(OC)c2)CCc2c(CN4CCOCC4)noc2-3)cc1 | 500 |

Tested on: M14
Assay: Antiproliferative activity against human M14 cells assessed as cell growth inhibition incubated for 72 hrs by MTT assay
Assay type: functional

| Compound | GI50 [nM] |
| --- | --- |
| COc1ccc(Cn2cc3c(c2-c2cc(OC)c(OC)c(OC)c2)CCc2c(CN4CCOCC4)noc2-3)cc1 | 560 |

Tested on: MDA-MB-435
Assay: Antiproliferative activity against human MDA-MB-435 cells assessed as cell growth inhibition incubated for 72 hrs by MTT assay
Assay type: functional

| Compound | GI50 [nM] |
| --- | --- |
| COc1ccc(Cn2cc3c(c2-c2cc(OC)c(OC)c(OC)c2)CCc2c(CN4CCOCC4)noc2-3)cc1 | 250 |

Tested on: SK-MEL-2
Assay: Antiproliferative activity against human SK-MEL-2 cells assessed as cell growth inhibition incubated for 72 hrs by MTT assay
Assay type: functional

| Compound | GI50 [nM] |
| --- | --- |
| COc1ccc(Cn2cc3c(c2-c2cc(OC)c(OC)c(OC)c2)CCc2c(CN4CCOCC4)noc2-3)cc1 | 550 |

Tested on: SK-MEL-28
Assay: Antiproliferative activity against human SK-MEL-28 cells assessed as cell growth inhibition incubated for 72 hrs by MTT assay
Assay type: functional

| Compound | GI50 [nM] |
| --- | --- |
| COc1ccc(Cn2cc3c(c2-c2cc(OC)c(OC)c(OC)c2)CCc2c(CN4CCOCC4)noc2-3)cc1 | > 100000 |
